# In patent US5373012A, “5-fluoro-2,4,6-pyrimidinetriamine compounds” (The Upjohn Company, priority 1993, dated 1994):
# “And” between values parts separate entries of the source, which are not always exact repeats. Equal values may be shown once.
# What was measured:
# [1] = in vivo hair growth assay using rats (shaved hair weighed every seven days); details: for Hair Growth: mean
# Procedure: The 5-fluoro minoxidil compounds were evaluated for hair growth in an in vivo hair growth assay using rats. Each rat is dosed with vehicle and drug, 200-500 microliters per day, 5 days per week. Every seven days the treated areas are shaved and the hair removed is weighed to compare normal untreated hair growth to the drug treated hair growth.
# [2] = hair growth in stumptail macaque monkeys (balding scalp, hair weight change from baseline); type: in vivo, stumptail macaque (Macaca specoisa) monkeys; details: Table III; topical 100 mM in 50% propylene glycol/50% ethanol, sixteen weeks; vehicle -1.8 ± 2.7; mean±SEM
# Procedure: The 5-fluoro minoxidil compounds were evaluated in the macaque monkey models and show significant hair growth results.
# Thirteen stumptail macaque (Macaca specoisa) monkeys (mixed sexes) were assigned to vehicle control and drug treated groups on the basis of baseline hair weight data.
# 1. Topical 50:50 vehicle (N=7)
# The control consisted of 50% propylene glycol, 50% ethanol. The experimental composition consisted of a 100 mM concentration of topical 5-fluoro minoxidil formulated in the control vehicle. Immediately prior to the dosing phase of the study, hair was removed from a 1 inch square area (identified by four tattoos) in the center of the balding scalp. This hair collection was the baseline hair growth determination prior to the beginning of treatment. Approximately 250 μL of vehicle or 100 mM 5-fluoro minoxidil (prepared in vehicle)were topically administered to the tattooed area of the scalp. The monkeys were dosed once per day, five days per week for sixteen weeks.
# At four week intervals throughout the dosing phase of the study, each monkey was shaved and the hair was collected and weighed. The body weight data (at baseline and during assay) were analyzed by the nonparametric Wilcoxon rank-sum test. Differences were significant at p<0.05. The hair weight data (mean±SEM) at each 4 week collection for vehicle and treatment groups were expressed as the change from baseline. […]
# [3] = transdermal absorption: urinary excretion of drug after topical application in rats; type: in vivo; details: for AVERAGE of total micrograms excreted: average of three rats, urine over 24 hours on fifth day; for AVERAGE of total micrograms excreted / TOTAL MICROGRAMS EXCRETED: 50/30/20 propylene glycol/ethanol/water; for TOTAL MICROGRAMS EXCRETED: individual rats 1-3, urine over 24 hours on fifth day after four days topical treatment
# Procedure: The ability of the 5-fluoro minoxidil to be absorbed in transdermal applications was measured versus minoxidil as a control. Three rats were treated with each compound for four days and on the fifth day their urine was collected over a 24 hour period. The urine was then analyzed for drug levels and converted to micrograms urine excreted per 24 hours. The compounds were administered in a 50/30/20 propylene glycol/ethanol/water vehicle.
# [4] = cardiovascular effects in vivo in conscious beagle dogs (mean arterial pressure, heart rate); details: 1.5 mg/kg; N=1; FIG. 2; 5-fluoro minoxidil compared to minoxidil
# Procedure: The 5-fluoro minoxidil compounds were evaluated for cardiovascular effects in an in vivo test with beagle dogs. This test procedure is described in Humprey SJ, Zins GR, Whole Body and Regional Hemodynamic Effects of Minoxidil in the Conscious Dog, J. Card, Pharm. 6:979-88 (1984) and in Humprey, S.J., Zins, G.R., The Effects of Indomethacin on the Systemic and Regional Vasodilator Responses to Minoxidil in the Conscious Dog, Chem. Path. & Pharm. 59:1 3-20 (1988). Experiments were conducted using a radiolabeled tracer microspheres technique, Wagner NH et al., Studies of the Circulation with Radioactive Microspheres, Invest. Radiol. 4:374-86 (1969), with conscious beagle dogs. The results of a rapid evaluation (N=1) of the 5-fluoro minoxidil compound compared to minoxidil are presented in FIG. 1 change in Mean Arterial Pressure versus Time at the doses indicated and FIG. 2 Changes in Heart Rate versus Time at the doses indicated.
AVERAGE of total micrograms excreted [3],SMILES,"Hair Growth ([1]; Table I, 1 mM, topical, vehicle 50/30/20 propylene glycol/ethanol/water, vehicle +0.527 ± 0.081)","Hair Growth ([1]; Table I, 5 mM, topical, vehicle 50/30/20 propylene glycol/ethanol/water, vehicle +0.527 ± 0.081)","Hair Growth ([1]; Table I, 25 mM, topical, vehicle 50/30/20 propylene glycol/ethanol/water, vehicle +0.527 ± 0.081)","Hair Growth ([1]; Table II, 25 mM 5-fluoro-minoxidil in 50/30/20 propylene glycol/ethanol/water, vehicle +0.528)",Hair Growth (cumulative change in hair weight from baseline) [2],transdermal transport properties versus unsubstituted minoxidil ([3]; in words),TOTAL MICROGRAMS EXCRETED [3],"absorption versus minoxidil ([3]; transdermal, rats, in words)",statistical difference (p) between the two agents in level of hair growth stimulation ([1]; 100 mM minoxidil vs 25 mM 5-fluoro-minoxidil),"Hair Growth ([1]; Table II, 100 mM minoxidil in 100% PG (propylene glycol), 100% PG alone +0.487)",change in Heart Rate [4]
1427 MICROGRAMS,"Nc1nc(N2CCCCC2)c(F)c(N)[n+]1[O-] [5-fluoro minoxidil, 5-Fluoro-6-piperidinyl-2,4-pyrimidinediamine, 3-Oxide]",+0.609 ± 0.083 mg/in^2 /day,+0.760 ± 0.153 mg/in^2 /day,+0.952 ± 0.149 mg/in^2 /day,+0.938 mg/in^2 /day,+14.8 ± 3.1 mg,superior transdermal transport properties over unsubstituted minoxidil,1229 MICROGRAMS and 1132 MICROGRAMS and 1921 MICROGRAMS,superior absorption over the minoxidil control,,,
454 MICROGRAMS,"Nc1cc(N2CCCCC2)nc(N)[n+]1[O-] [Minoxidil, reference compound]",,,,,,,354 MICROGRAMS and 358 MICROGRAMS and 651 MICROGRAMS,,no statistical difference,+1.065 mg/in^2 /day,increases in heart rate
